Measured values taken from patent US7214767B2, “VHL peptide” (Hiroshi Kanno, priority 2005, dated 2007).

How the values were obtained:
neural stem cells = assay: Cytotoxicity of the method of introduction into cells; type: cell-based
Excerpt: It became clear from this that VHL (157–171) has an activity of inducing neuronal differentiation.

Parkinson's model rat [1] = assay: Apomorphine induced rotation after grafting of VHL peptide-introduced neural stem cells; type: in vivo; details: after two months; 10^5 peptide-introduced neural stem cells grafted to striatum
Protocol: (§1) Next, it was studied whether the symptom could be improved by grafting of neural stem cells into which VHL (157–171) oligopeptide was introduced within the central nervous system of a nerve disease animal. Parkinson's model rat as a nerve disease animal was prepared by injection of microdose of 6-hydroxydopamine into brain of rat and depletion of unilateral dopamine producing cells. Two weeks later, apomorphine induced rotation was studied and rat rotating not less than 7 times per one minute was determined as Parkinson's disease model. 10^5 neural stem cells into which VHL (157–171) oligopeptide was introduced were grafted to striatum of cerebrum of rat. After grafting, apomorphine induced rotation was determined every week. […] As behavior analysis, paw reaching test (a test wherein an ability to eat pellets placed on stairs by extending one side injured leg is studied.) was conducted and […] (FIG. 6).

[2] = system: neural stem cells derived from the adult rat hippocampus; assay: VHL oligopeptide introduced in vitro into neural stem cells using BioPORTER Reagent; type: cell-based; details: for morphological change compared with control group: 8 hours after introduction
Protocol: The oligopeptide prepared according to the above-described method was introduced in vitro into neural stem cells derived from the adult rat hippocampus at a concentration of 10–1000 ng/ml using BioPORTER Reagent (BioPORTER protein delivery reagent: Gene Therapy Systems, Inc., San Diego, Calif., U.S.A.). […] When this was immunofluorescence stained at a concentration of 100 ng/mL 24 hours after introduction, it was confirmed that 72% of them was differentiated into neurons, and 12% was differentiated into neuroglia cells (FIG. 4). Thereby, it was clarified that VHL could induce neuronal differentiation even by the method of peptide introduction not by introduction of gene.

[3] = system: Parkinson's disease model rat; assay: Pathological and histological study of the brain after grafting; type: in vivo; details: peptide-introduced neural stem cells grafted to striatum
Protocol: as §1

Parkinson's model rat [4] = assay: Paw reaching test after grafting of VHL peptide-introduced neural stem cells; type: in vivo; details: peptide-introduced neural stem cells grafted to striatum
Protocol: as §1

skin stem cells = assay: Induction of differentiation of skin stem cells by VHL protein (FIG. 1); type: cell-based; details: neurofilament positive neuron
Excerpt: FIG. 1 is a fluorescence photomicrograph showing induction of differentiation of skin stem cell into neurofilament positive neuron.
A VHL gene, which is the causative gene of von Hippel-Lindau disease, a hereditary disease causing brain tumor (hemangioblastoma) or renal cancer, is a kind of a tumor suppressor gene. This gene was isolated from human chromosome 3 by Dr. Zbar et al.'s group (U.S.A.) in 1993. It has been reported that the VHL gene and the protein are expressed in neurons. However, the function of this gene in the nervous system was unknown. We considered that the gene may be involved in the formation of the nervous system at fetal developmental stages and studied differentiation over time of neural stem cells isolated from a rat fetal brain. […] As a result, when VHL gene is introduced to express VHL protein, neural stem cells are differentiated into neurons. Thus, it was clarified that VHL protein has a function to induce differentiation of nerves.

[5] = 100 ng/mL, 24 hours after introduction, BioPORTER Reagent

Ac-TLKERCLQVVRSLVKKKWKMRRNQFWVKVQRGK-NH2 [VHL (157–171)-ANT]
cytotoxicity (neural stem cells): does not show cytotoxicity

TLKERCLQVVRSLVK [VHL (157–171) oligopeptide]
rats showing zero of apomorphine induced rotation (Parkinson's model rat [1]): about 30%
cells differentiated into neuroglia cells (immunofluorescence staining) [2, 5]: 12%
cells differentiated into neurons (immunofluorescence staining) [2, 5]: 72%
morphological change compared with control group ([2]; BioPORTER Reagent): more marked as compared with the control group
morphological change compared with control group ([2]; BioPORTER Reagent, listed as VHL peptide): marked as compared with control group
concentration at which neural stem cells showed inclination to differentiate to neuron morphologically, elongation of neural spine observed ([2]; after 4 hours, introduced at 10–1000 ng/ml using BioPORTER Reagent): not less than 10 ng/ml
grafted cells taken within the brain [3]: about 70%
type of the grafted cells taken within the brain [3]: most of them were neurofilament positive neurons
type of the grafted cells taken within the brain ([3]; listed as VHL gene): most of them are neuronal filaments
behavior analysis (paw reaching test, apomorphine induced rotation) compared with control group (Parkinson's model rat [4]): significant improvement

VHL protein: von Hippel-Lindau protein consisting of 213 full length amino acids
differentiation of skin stem cells into neurons (skin stem cells): induces differentiation of skin stem cells into neurons
